Test results reported in patent publication US20180134788A1, “Methods and Pharmaceutical Compositions (NTSR1 Inhibitors) for the Treatment of Hepatocellular Carcinomas” (INSERM (Institut National de la Sante et de la Recherche …, priority 2015, published 2018).

How the values were obtained:
Type in all cases: cell-based
[1] = tested on: NTSR1 transcription in HuH7, HEP 3B and PLC/PRF5 cells; assay: NTSR1 transcript analysis in HCC cell lines; conditions: three HCC cell lines, 20 nM LiCl for 6 h
Protocol: (§1) (A) NTS, NTSR2, NTSR3, and NTSR1 transcript analysis from 400 ng of HuH7, HEP 3B, and PLC/RF5, total RNA. NTSR1 A and NTSR1 B show the amplicon from two different set of primers. (B) Typical immunocytochemistry labeling for NTSR1 and DAPI in HEP 3B and PLC/RF5 cells. Cells were seeded on glass slides, grown for 48 h, and immunocytochemistry was performed as described in the Materials and Methods section. (C) NTSR1 transcript analysis from HuH7, HEP 3B and PLC/RF5 of total RNA from cells treated or not with […] LiCl for 6 h. (D) Typical immunocytochemistry NTSR1 labeling of HEP 3B and PLC/RF5 cells treated with 1 μM SB 216763 for 6 h.
(§2) Among the three cell lines studied, only PLC/PRF5 cells presented a dysregulation in the beta catenin pathway with a deletion in Axin (E4/−). […] We previously hypothesized that NTSR1 expression was correlated with deregulated wnt/beta catenin pathways. To evaluate this hypothesis, we forced the cellular and nuclear relocation of β-catenin in these cells lines with the LiCl, and an inhibitor of the glycogen synthase kinase (GSK) 3β, the SB216763. LiCl and SB216763 are known to decrease the degradation of β-catenin by inhibiting GSK-3 and promoting the accumulation of β-catenin in the cytoplasm of liver cancer cells.

[2] = tested on: phosphorylated-EGFR in HEP 3B and PLC/RF5 cells; assay: Western blot of Tyr 1173 phosphorylated EGFR in HCC cell lines; conditions: both cell lines, SB216763 treatment
Protocol: (§3) (A) Typical immunocytochemistry labeling for NTSR1 (Top) and EGFR (Bottom) in PLC/RF5 and HEP 3B cells treated or not with 1 μM SB216763 or 5 μM SR4892 or both for 48 h. (B and C) Representative western blot analyses of Tyr 1173 phosphorylated EGFR, EGFR, and actin of HEP 3B and PLC/RF5 treated as indicate above.
In both cell lines, phosphorylated-EGFR was increased under SB216763 treatment this increase was abolished when SR 48692 was added to the treatment.

[3] = tested on: NTSR1 expression in HEP 3B and PLC/PRF5 cells; assay: NTSR1 immunocytochemistry labeling in HCC cell lines
Protocol: as §1, §3, §2
(§4) It was previously shown that the NTS/NTSR1 complex potentiates EGF signaling in liver, colon, prostate, lung, and breast cancer. We investigated the possible relation between NTSR1 expression and EGFR expression and activation. […] Treatment with SR48692, a specific NTSR1 antagonist, decreased the expression of EGFR, whereas NTSR1 expression was not altered. When the combined treatment with SB216763 and SR48692 is used, the effect of SB216763 on EFGR expression is limited by the presence of the NTSR1 antagonist (FIG. 5A).

[4] = tested on: EGFR expression in PLC/PRF5 and HEP3B cells; assay: EGFR immunocytochemistry labeling in HCC cell lines; conditions: PLC/PRF5 and HEP3B, 48 h; 1 μM SB216763 or 5 μM SR48692
Protocol: as §3, §4

Structure (SMILES)	NTSR1 transcription [1]	phosphorylated-EGFR [2]	NTSR1 immunolabeling signal ([3]; HEP3B and PLC/PRF5 cells, 1 μM SB 216763 for 6 h)	NTSR1 expression ([3]; PLC/PRF5 and HEP3B, 48 h, 1 μM SB216763 or 5 μM SR48692)	EGFR expression [4]
[Cl-].[Li+] [LiCl]	upregulated	–	–	–	–
Cn1cc(C2=C(c3ccc(Cl)cc3Cl)C(=O)NC2=O)c2ccccc21 [SB216763]	–	increased	remarkably amplified	increase	increase
